Results taken from ChEMBL document CHEMBL5053512, “Discovery and Preclinical Pharmacology of an Oral Bromodomain and Extra-Terminal (BET) Inhibitor Using Scaffold-Hopping and Structure-Guided Drug Design” (J Med Chem, 2021).
pIC50: −log10 of the molar value.

What was measured:
[1] = Metabolic stability in human liver microsomes assessed as parent compound remaining at 0.5 uM after 10 mins; type: ADME, Microsome; settings: read-out: Stability
[2] = Metabolic stability in mouse liver microsomes assessed as parent compound remaining at 0.5 uM after 10 mins; type: ADME, Microsome; settings: read-out: Stability
[3] = Permeability coefficient across apical to basolateral side in human Caco-2 cells; type: ADME, cell-based; settings: read-out: permeability
[4] = Permeability coefficient across basolateral to apical side in human Caco-2 cells; type: ADME, cell-based; settings: read-out: permeability
[5] = AUC (0 to 7 hrs) in mouse at 30 mg/kg, po; type: ADME, organism-based; design: time < 7 hr, dose 30 mg/kg, route po; settings: in vivo
[6] = Efflux ratio of permeability in human Caco-2 cells; type: ADME, cell-based
Cytochrome P450 2D6 = Cytochrome P450 2D6 (Homo sapiens, UniProt P10635); test: Inhibition of CYP2D6 (unknown origin); type: ADME
Cytochrome P450 2D6, sequence (P10635 whole entry): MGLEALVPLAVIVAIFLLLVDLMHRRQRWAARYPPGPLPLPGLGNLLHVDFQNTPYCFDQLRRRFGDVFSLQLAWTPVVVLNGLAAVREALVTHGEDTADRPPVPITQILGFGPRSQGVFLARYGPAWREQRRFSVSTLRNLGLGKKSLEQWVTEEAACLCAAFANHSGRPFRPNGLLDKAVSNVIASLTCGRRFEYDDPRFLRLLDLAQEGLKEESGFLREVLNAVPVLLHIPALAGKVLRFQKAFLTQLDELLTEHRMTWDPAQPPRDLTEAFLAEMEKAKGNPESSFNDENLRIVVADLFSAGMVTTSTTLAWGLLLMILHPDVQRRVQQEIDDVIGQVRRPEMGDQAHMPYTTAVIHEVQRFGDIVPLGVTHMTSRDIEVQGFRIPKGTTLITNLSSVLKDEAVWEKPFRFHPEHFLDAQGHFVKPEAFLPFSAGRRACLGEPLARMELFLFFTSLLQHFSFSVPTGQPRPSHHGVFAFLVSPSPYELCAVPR

[7] = target: T1, Voltage-gated inwardly rectifying potassium channel KCNH2 (Homo sapiens, UniProt Q12809); test: Inhibition of human ERG by flux assay
T1 sequence (Q12809 whole entry): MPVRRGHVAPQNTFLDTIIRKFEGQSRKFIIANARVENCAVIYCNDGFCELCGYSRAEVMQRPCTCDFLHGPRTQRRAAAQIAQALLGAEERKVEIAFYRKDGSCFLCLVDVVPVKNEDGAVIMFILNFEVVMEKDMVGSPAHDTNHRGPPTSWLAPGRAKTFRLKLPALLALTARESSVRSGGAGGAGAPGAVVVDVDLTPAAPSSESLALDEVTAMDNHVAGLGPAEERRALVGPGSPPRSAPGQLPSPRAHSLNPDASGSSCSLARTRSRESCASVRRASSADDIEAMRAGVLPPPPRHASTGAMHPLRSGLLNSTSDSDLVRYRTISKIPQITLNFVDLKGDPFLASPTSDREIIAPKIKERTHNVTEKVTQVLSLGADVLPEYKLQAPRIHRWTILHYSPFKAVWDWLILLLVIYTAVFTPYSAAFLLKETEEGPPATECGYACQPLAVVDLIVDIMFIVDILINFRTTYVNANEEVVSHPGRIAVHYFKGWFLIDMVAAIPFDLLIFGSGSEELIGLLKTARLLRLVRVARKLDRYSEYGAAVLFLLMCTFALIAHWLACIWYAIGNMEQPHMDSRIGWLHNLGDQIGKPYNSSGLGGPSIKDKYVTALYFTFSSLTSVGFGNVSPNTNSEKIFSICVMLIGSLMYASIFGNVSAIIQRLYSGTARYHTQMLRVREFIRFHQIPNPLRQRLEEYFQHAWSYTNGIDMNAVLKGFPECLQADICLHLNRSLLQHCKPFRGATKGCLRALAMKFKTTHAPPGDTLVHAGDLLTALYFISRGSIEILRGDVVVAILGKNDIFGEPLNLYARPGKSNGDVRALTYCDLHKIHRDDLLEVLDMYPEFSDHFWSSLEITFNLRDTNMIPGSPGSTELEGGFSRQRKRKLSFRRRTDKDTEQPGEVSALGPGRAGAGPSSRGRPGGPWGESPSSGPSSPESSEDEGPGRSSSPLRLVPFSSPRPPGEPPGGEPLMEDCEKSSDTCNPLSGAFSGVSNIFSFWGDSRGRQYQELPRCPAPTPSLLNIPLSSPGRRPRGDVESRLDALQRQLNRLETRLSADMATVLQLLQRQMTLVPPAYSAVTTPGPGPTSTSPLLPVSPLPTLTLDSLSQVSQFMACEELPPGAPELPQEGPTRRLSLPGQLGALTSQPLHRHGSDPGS

[8] = target: T1, Voltage-gated inwardly rectifying potassium channel KCNH2; test: Inhibition of human ERG by patch-clamp assay
[9] = Oral bioavailability in mouse at 5 mg/kg; type: ADME, organism-based; settings: in vivo
[10] = Oral bioavailability in monkey at 5 mg/kg; type: ADME, organism-based, Macaca mulatta; settings: rhesus monkey, in vivo
[11] = Elimination half life in mouse at 1.75 mg/kg, iv; type: ADME, organism-based; settings: in vivo, read-out: beta t1/2 (converted)
[12] = Elimination half life in monkey at 0.1 mg/kg, iv; type: ADME, organism-based, Macaca mulatta; settings: rhesus monkey, in vivo, read-out: beta t1/2 (converted)
[13] = Total plasma clearance in dog at 0.1 mg/kg, iv; type: ADME, organism-based, Canis lupus familiaris
[14] = Volume of distribution at steady state in rat at 1 mg/kg, iv; type: ADME, organism-based; settings: in vivo, read-out: Vdss
[15] = Volume of distribution at steady state in dog at 0.1 mg/kg, iv; type: ADME, organism-based, Canis lupus familiaris; settings: in vivo, read-out: Vdss
[16] = Volume of distribution at steady state in monkey at 0.1 mg/kg, iv; type: ADME, organism-based, Macaca mulatta; settings: rhesus monkey, in vivo, read-out: Vdss
[17] = Anticancer activity against human HCC33 cells; type: functional, cell-based
DMS-53 = test: Anticancer activity against human DMS-53 cells; type: functional, cell-based
DMS-114 = test: Anticancer activity against human DMS-114 cells; type: functional, cell-based
NCI-H146 = test: Anticancer activity against human NCI-H146 cells; type: functional, cell-based
NCI-H23 = test: Anticancer activity against human NCI-H23 cells; type: functional, cell-based
NCI-H441 = test: Anticancer activity against human NCI-H441 cells; type: functional, cell-based
SK-LU-1 = test: Anticancer activity against human SK-LU-1 cells; type: functional, cell-based
NCI-H647 = test: Anticancer activity against human NCI-H647 cells; type: functional, cell-based
NCI-H1048 = test: Anticancer activity against human NCI-H1048 cells; type: functional, cell-based
NCI-H1623 = test: Anticancer activity against human NCI-H1623 cells; type: functional, cell-based
NCI-H1792 = test: Anticancer activity against human NCI-H1792 cells; type: functional, cell-based
SK-MES-1 = test: Anticancer activity against human SK-MES-1 cells; type: functional, cell-based
[18] = Anticancer activity against human JJN3R cells; type: functional, cell-based; settings: JJN-3R
MOLM-13 = test: Anticancer activity against human MOLM-13 cells; type: functional, cell-based
NCI-H211 = test: Anticlonogenic activity against human NCI-H211 cells; type: functional, cell-based
[19] = Antitumour activity against human LG0787F cells xenografted in NSG mouse assessed as tumour growth inhibition at 1 mg/kg/day, po qd; type: functional; settings: read-out: TGI
[20] = Cmax in human LG0787F cells xenografted in NSG mouse at 1 mg/kg/day, po bid; type: ADME, organism-based; design: dose 1 mg/kg/day, route po; settings: in vivo
[21] = AUC in human LG0787F cells xenografted in NSG mouse at 1 mg/kg/day, po qd; type: ADME, organism-based; design: dose 1 mg/kg/day, route po; settings: in vivo
[22] = Cmax in human LG0787F cells xenografted in NSG mouse at 1 mg/kg/day, po qd; type: ADME, organism-based; design: dose 1 mg/kg/day, route po; settings: in vivo
[23] = Antitumour activity against human LG0787F cells xenografted in NSG mouse assessed as tumour growth inhibition at 0.25 mg/kg/day, po bid; type: functional; settings: read-out: TGI
[24] = Antitumour activity against human LG0787F cells xenografted in po dosed NSG mouse assessed as minimum effective concentration measured after 12 hrs; type: functional; settings: dose 0.25 mg/kg/day
[25] = Drug concentration at steady state in human LG0787F cells xenografted in NSG mouse infused continuously over 6 days using Alzet pump; type: ADME; settings: iv, 144 h, time 6 day
[26] = Antitumour activity against human LG0787F cells xenografted in NSG mouse assessed as tumour growth inhibition at 0.5 mg/kg/day infused continuously over 6 days using Alzet pump; type: functional; settings: 144 h, time 6 day, read-out: TGI
[27] = Drug concentration at steady state in human LG0787F cells xenografted in NSG mouse at 0.5 mg/kg/day infused continuously over 6 days using Alzet pump; type: ADME, organism-based; settings: in vivo, 144 h, time 6 day
[28] = Antitumour activity against patient-derived human LG0787F cells xenografted in mouse model at 1.6 mg/kg, po bid, 5 days on and 2 days off for 2 weeks; type: functional; settings: 120 h, time 5 day, read-out: TGI
[29] = Antitumour activity against patient-derived human PAT136 cells xenografted in mouse model at 1.6 mg/kg, po bid, 5 days on and 2 days off for 2 weeks; type: functional; settings: PAT136, 120 h, time 5 day, read-out: TGI
[30] = Antitumour activity against patient-derived human PAT121 cells xenografted in mouse model at 1.6 mg/kg, po bid, 5 days on and 2 days off for 2 weeks; type: functional; settings: PAT121, 120 h, time 5 day, read-out: TGI
[31] = Antitumour activity against patient-derived human PAT130 cells xenografted in mouse model at 1.6 mg/kg, po bid, 5 days on and 2 days off for 2 weeks; type: functional; settings: PAT130, 120 h, time 5 day, read-out: TGI
[32] = Antitumour activity against patient-derived human PAT138 cells xenografted in mouse model at 1.6 mg/kg, po bid, 5 days on and 2 days off for 2 weeks; type: functional; settings: PAT138, 120 h, time 5 day, read-out: TGI
[33] = Antitumour activity against patient-derived human PAT014 cells xenografted in mouse model at 1.6 mg/kg, po bid, 5 days on and 2 days off for 2 weeks; type: functional; settings: PAT014, 120 h, time 5 day, read-out: TGI
[34] = Antitumour activity against patient-derived human PAT140 cells xenografted in mouse model at 1.6 mg/kg, po bid, 5 days on and 2 days off for 2 weeks; type: functional; settings: PAT140, 120 h, time 5 day, read-out: TGI
[35] = Antitumour activity against patient-derived human LGO52.0F/Cis/R48 cells xenografted in mouse model at 1.6 mg/kg, po bid, 5 days on and 2 days off for 2 weeks; type: functional; settings: LGO52.0F/Cis/R48, 120 h, time 5 day, read-out: TGI
[36] = Antitumour activity against patient-derived human PAT78 cells xenografted in mouse model at 1.6 mg/kg, po bid, 5 days on and 2 days off for 2 weeks; type: functional; settings: PAT78, 120 h, time 5 day, read-out: TGI

## Cc1nnn(C)c1-c1cnc2c3ccc(C(C)(C)O)cc3n([C@H](c3ccccc3)C3CCOCC3)c2c1 [EZOBRESIB]
[1]
  remaining at 10 min, 0.5 µM: 82%
[2]
  remaining at 10 min, 0.5 µM: 66%
[3]
  Papp A→B: 13.3 ×10⁻⁶ cm/s
[4]
  Papp B→A: 34.7 ×10⁻⁶ cm/s
[5]
  AUC(0-t) at 7 h: 49.6 µM·h
[6]
  efflux ratio: 2.6
Cytochrome P450 2D6
  pIC50: < 4.70
[7]
  pIC50: < 4.10
[8]
  pIC50: 4.55
[9]
  bioavailability: 100%
[10]
  bioavailability: 16%
[11]
  half-life: 1.8 h
[12]
  half-life: 2 h
[13]
  clearance: 15 mL/min/kg
[14]
  Vd: 4.3 L/kg
[15]
  Vd: 5.3 L/kg
[16]
  Vd: 4.2 L/kg
[17]
  pIC50: 9.64
DMS-53
  pIC50: 9.54
DMS-114
  pIC50: 9.49
NCI-H146
  pIC50: 9.39
NCI-H23
  pIC50: 7.21
NCI-H441
  pIC50: 6.93
SK-LU-1
  pIC50: 6.68
NCI-H647
  pIC50: 6.36
NCI-H1048
  pIC50: < 6.30
NCI-H1623
  pIC50: < 6.30
NCI-H1792
  pIC50: < 6.30
SK-MES-1
  pIC50: < 6.30
[18]
  pIC50: 9.15
MOLM-13
  pIC50: 8.77
NCI-H211
  pIC50: 8.25
[19]
  inhibition in vivo at 1 mg/kg/day: 50%
[20]
  Cmax: 40 nM
[21]
  AUC: 0.6 µM·h
[22]
  Cmax: 150 nM
[23]
  inhibition in vivo at 0.25 mg/kg/day: 46%
[24]
  MEC: 10 nM
[25]
  Css: 17 nM
[26]
  inhibition in vivo at 0.5 mg/kg/day: 62%
[27]
  Css: 10 nM
[28]
  inhibition in vivo at 1.6 mg/kg: 110%
[29]
  inhibition in vivo at 1.6 mg/kg: 92%
[30]
  inhibition in vivo at 1.6 mg/kg: 85%
[31]
  inhibition in vivo at 1.6 mg/kg: 76%
[32]
  inhibition in vivo at 1.6 mg/kg: 75%
[33]
  inhibition in vivo at 1.6 mg/kg: 70%
[34]
  inhibition in vivo at 1.6 mg/kg: 59%
[35]
  inhibition in vivo at 1.6 mg/kg: 50%
[36]
  inhibition in vivo at 1.6 mg/kg: 47%
